Calls of active or inactive are those of the source. No cut-off for these calls is given here.
Experiments:
[1] = Metabolic stability in mouse liver microsome assessed as half life measured upto 60 mins in presence of NADPH by LC-MS/MS analysis; assay type: ADME; conditions: liver microsomes
[2] = Chemical stability of the compound assessed as parent compound remaining measured at 7 hrs; assay type: physicochemical; conditions: read-out: Stability
[3] = AUC in Sprague-Dawley rat at 3 mg/kg, po measured upto 24 hrs by LC/MS-MS analysis; assay type: ADME, organism-based; conditions: in vivo
[4] = Oral bioavailability in ICR mouse at 3 mg/kg measured upto 24 hrs by LC/MS-MS analysis; assay type: ADME, organism-based; conditions: in vivo
[5] = Metabolic stability in human plasma assessed as half life measured upto 120 mins by LC-MS/MS analysis; assay type: ADME, cell-free
[6] = Plasma protein binding in human by LC-MS analysis; assay type: ADME, cell-free; conditions: read-out: PPB (converted)
[7] = target: Cytochrome P450 2D6 (Homo sapiens, UniProt P10635); test: Inhibition of CYP2D6 (unknown origin) preincubated with compound for 5 mins followed by NADPH addition and measured after 20 mins by LC-MS/MS analysis; assay type: ADME
Cytochrome P450 2D6, sequence (P10635 whole entry): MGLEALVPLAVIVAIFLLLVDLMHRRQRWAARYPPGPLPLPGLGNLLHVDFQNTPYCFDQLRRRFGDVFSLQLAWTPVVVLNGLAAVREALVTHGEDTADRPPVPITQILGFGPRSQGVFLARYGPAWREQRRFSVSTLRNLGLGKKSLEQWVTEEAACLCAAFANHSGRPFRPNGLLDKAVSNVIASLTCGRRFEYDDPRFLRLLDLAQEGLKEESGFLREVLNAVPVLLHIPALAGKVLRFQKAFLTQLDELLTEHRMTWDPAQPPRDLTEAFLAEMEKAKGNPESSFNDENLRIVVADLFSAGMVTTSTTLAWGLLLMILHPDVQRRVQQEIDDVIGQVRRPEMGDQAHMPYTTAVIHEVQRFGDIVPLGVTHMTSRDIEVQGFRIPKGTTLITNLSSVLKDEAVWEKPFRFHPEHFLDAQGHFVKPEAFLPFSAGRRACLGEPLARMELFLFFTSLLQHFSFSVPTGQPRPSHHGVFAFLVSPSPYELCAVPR

[8] = Drug distribution in SCID mouse plasma at 3 mg/kg, po measured at 24 hrs by LC-MS/MS analysis; assay type: ADME, organism-based
[9] = Drug distribution in SCID mouse tumor at 0.3 mg/kg, po measured at 6 hrs by LC-MS/MS analysis; assay type: ADME, organism-based, Neoplasm; conditions: read-out: Ct
[10] = Drug distribution in SCID mouse liver at 0.3 mg/kg, po measured at 6 hrs by LC-MS/MS analysis; assay type: ADME, organism-based; conditions: read-out: Ct
[11] = Drug distribution in SCID mouse liver at 0.3 mg/kg, po measured at 24 hrs by LC-MS/MS analysis; assay type: ADME, organism-based; conditions: read-out: Ct
[12] = Drug distribution in SCID mouse liver at 3 mg/kg, po measured at 1 hr by LC-MS/MS analysis; assay type: ADME, organism-based; conditions: read-out: Ct
[13] = Drug distribution in SCID mouse spleen at 1 mg/kg, po measured at 24 hrs by LC-MS/MS analysis; assay type: ADME, organism-based; conditions: read-out: Ct
[14] = Drug distribution in SCID mouse spleen at 3 mg/kg, po measured at 6 hrs by LC-MS/MS analysis; assay type: ADME, organism-based; conditions: read-out: Ct
[15] = system: CWR22R; test: Antitumor activity against human 22Rv1 cells xenografted in SCID mouse assessed as reduction in BRD2 level in tumor at 1 to 3 mg/kg, po measured at 6 to 24 hrs by Western blotting analysis; assay type: functional, organism-based; conditions: dose 1-3 mg/kg, time 6-24 hrs
[16] = system: VCaP; test: Antitumor activity against human VCaP cells xenografted in SCID mouse assessed as tumor regression at 3 mg/kg, po administered 3 times a week for 4 weeks; assay type: functional
[17] = Toxicity in male BALB/c mouse assessed as effect on body weight loss at 3 to 10 mg/kg, po administered twice a week for 5 to 6 weeks; assay type: organism-based; conditions: in vivo, dose lower 3 mg/kg, time lower 5 weeks, dose upper 10 mg/kg, time upper 6 weeks
[18] = Toxicity in female BALB/c mouse assessed as effect on body weight loss at 3 to 10 mg/kg, po administered twice a week for 5 to 6 weeks; assay type: organism-based; conditions: in vivo, dose lower 3 mg/kg, time lower 5 weeks, dose upper 10 mg/kg, time upper 6 weeks
[19] = Drug distribution in Sprague-Dawley rat kidney at 3 mg/kg, po measured at 1 hr by LC-MS/MS analysis; assay type: ADME, organism-based; conditions: read-out: Ct
[20] = Drug distribution in Sprague-Dawley rat liver at 10 mg/kg, po measured at 6 hrs by LC-MS/MS analysis; assay type: ADME, organism-based; conditions: read-out: Ct
[21] = Drug distribution in Sprague-Dawley rat spleen at 3 mg/kg, po measured at 24 hrs by LC-MS/MS analysis; assay type: ADME, organism-based; conditions: read-out: Ct
[22] = Drug distribution in Sprague-Dawley rat spleen at 10 mg/kg, po measured at 1 hr by LC-MS/MS analysis; assay type: ADME, organism-based; conditions: read-out: Ct
[23] = target: T1, Protein cereblon/histone acetyltransferase (Rattus norvegicus, UniProt Q56AP7+Q91XT0); test: PROTAC activity at p300/CRBN in rat RG2 cells assessed as induction of p300 degradation; assay type: cell-based
T1 sequence (Q56AP7 whole entry): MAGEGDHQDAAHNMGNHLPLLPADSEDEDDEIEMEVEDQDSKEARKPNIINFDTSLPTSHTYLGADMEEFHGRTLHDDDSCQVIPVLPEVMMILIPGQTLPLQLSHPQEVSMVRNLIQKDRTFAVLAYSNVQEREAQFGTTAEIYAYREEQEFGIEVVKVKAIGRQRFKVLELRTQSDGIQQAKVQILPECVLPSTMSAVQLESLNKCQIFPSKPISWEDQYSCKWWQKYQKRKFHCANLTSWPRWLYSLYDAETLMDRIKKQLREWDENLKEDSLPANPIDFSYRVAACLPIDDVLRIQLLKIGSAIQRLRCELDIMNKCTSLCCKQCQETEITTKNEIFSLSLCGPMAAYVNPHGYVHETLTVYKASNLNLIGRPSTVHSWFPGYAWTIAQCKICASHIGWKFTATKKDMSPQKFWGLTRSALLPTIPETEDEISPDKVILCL
T1 sequence (Q91XT0 whole entry): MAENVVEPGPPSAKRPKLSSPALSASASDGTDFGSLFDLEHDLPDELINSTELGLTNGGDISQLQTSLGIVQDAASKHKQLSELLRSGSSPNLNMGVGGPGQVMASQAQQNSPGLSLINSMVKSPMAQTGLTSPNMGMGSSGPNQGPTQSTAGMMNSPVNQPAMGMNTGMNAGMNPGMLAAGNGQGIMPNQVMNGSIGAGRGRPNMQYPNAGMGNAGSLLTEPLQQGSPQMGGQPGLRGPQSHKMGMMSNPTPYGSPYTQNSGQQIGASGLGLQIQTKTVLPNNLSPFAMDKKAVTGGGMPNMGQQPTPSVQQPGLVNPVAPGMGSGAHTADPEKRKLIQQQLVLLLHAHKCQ

[24] = Toxicity in immune-competent Sprague-Dawley rat at 1 to 10 mg/kg, po administered twice a week for 5 weeks; assay type: organism-based; conditions: in vivo, 840 h, dose 1-10 mg/kg
[25] = Toxicity in immune-competent Sprague-Dawley rat assessed as change in white blood cells count at 1 to 10 mg/kg, po administered twice a week for 5 weeks; assay type: organism-based; conditions: in vivo, 840 h, dose 1-10 mg/kg
[26] = Toxicity in immune-competent Sprague-Dawley rat assessed as change in neutrophil at 1 to 10 mg/kg, po administered twice a week for 5 weeks; assay type: organism-based; conditions: in vivo, 840 h, dose 1-10 mg/kg
[27] = Toxicity in immune-competent Sprague-Dawley rat assessed as change in basophil at 1 to 10 mg/kg, po administered twice a week for 5 weeks; assay type: organism-based; conditions: in vivo, 840 h, dose 1-10 mg/kg
[28] = Toxicity in immune-competent Sprague-Dawley rat assessed as change in lymphocyte at 1 to 10 mg/kg, po administered twice a week for 5 weeks; assay type: organism-based; conditions: in vivo, 840 h, dose 1-10 mg/kg
[29] = Toxicity in immune-competent Sprague-Dawley rat assessed as change in eosinophil at 1 to 10 mg/kg, po administered twice a week for 5 weeks; assay type: organism-based; conditions: in vivo, 840 h, dose 1-10 mg/kg

## CC(=O)N1CCc2c(c(N3CCCc4cc(-c5cnn(C)c5)c(C(F)F)cc43)nn2[C@H]2CC[C@H](CN3Cc4cc5c(cc4C3)C(=O)N(C3CCC(=O)NC3=O)C5=O)CC2)C1 (some centres undefined)
[1]
  half-life: > 2 h
[2]
  remaining at 7 h: < 10%
[3]
  AUC at 24 h: 937 ng·h/mL
[4]
  bioavailability: 60%
[5]
  half-life: 1.18 h
[6]
  fraction unbound: 0.009
[7]
  IC50: > 10000 nM
[8]
  concentration at 24 h: 12.7 ng/mL
[9]
  concentration at 6 h: 14.4 ng/g
[10]
  concentration at 6 h: 86.8 ng/mL
[11]
  concentration at 24 h: 5.6 ng/mL
[12]
  concentration at 1 h: 3300 ng/mL
[13]
  concentration at 24 h: 2.8 ng/mL
[14]
  concentration at 6 h: 738 ng/mL
[15]
  Activity: Active
[16]
  Activity: 67%
[17]
  Activity: Non-Toxic
[18]
  Activity: Non-Toxic
[19]
  concentration at 1 h: 514 ng/g
[20]
  concentration at 6 h: 541 ng/g
[21]
  concentration at 24 h: 8.1 ng/g
[22]
  concentration at 1 h: 1990 ng/g
[23]
  DC50: 0.3 nM
[24]
  Activity: Non-Toxic
[25]
  Activity: Non-Toxic
[26]
  Activity: Non-Toxic
[27]
  Activity: Non-Toxic
[28]
  Activity: Non-Toxic
[29]
  Activity: Non-Toxic
